{"source": "paper PMC5309247", "about": "“A Role of Corazonin Receptor in Larval-Pupal Transition and Pupariation in the Oriental Fruit Fly Bactrocera dorsalis (Hendel) (Diptera: Tephritidae)” (Frontiers in Physiology, 2017)", "key": {"DmCrzR": {"test_system": "DmCrzR", "settings": "ref Cazzamali et al., [2002], Park et al., [2002b], cited from earlier work", "from_the_text": "(§1) The CrzR is a member of the GPCR family having seven TM domains. Since the first CrzR was identified in Drosophila, homologous receptors have been predicted in several genome databases (Sha et al., [2012])."}, "[1]": {"test_system": "head-ligated B. dorsalis larvae", "test": "Rescue of larval-pupal transition by peptide injection in head-ligated larvae", "assay_type": "in vivo, Bactrocera dorsalis", "settings": "0.3 pmol in 300 nL, 24 h post-injection; for rescue of pupariation in head-ligated larvae: in words", "protocol": "The peptides of Crz and ETH of B. dorsalis were synthesized by Genescript (Nanjing, China), and the adipokinetic hormone (AKH) peptide of Bombyx mori (BmAKH) was a gift from Dr. Naiming Zhou (Zhejing University, China; Yang et al., [2013]). The amino acid (aa) sequences for Crz, ETH and AKH were added in Table 1. Plasmids were prepared using the MIDIprep kit as purchased from Qiagen (Valencia, CA). The reagents for cell culture and GPCR assay were purchased from Gibco cell culture at Life Technologies (Grand Island, NY), including fetal bovine serum, DMEM/F12 medium, fungizone, penicillin/streptomycin, and coelenterazine. The transfection reagent (TransIt) was purchased from Mirus Bio (Madison, WI).\nThe experimental setup with head-ligated 2-day-old 3rd-instar larvae was based on a previous study (Kim et al., [2004]). […] Upon head-ligation, a series of larvae was injected with Crz (0.3 pmol in 300 nL) or ETH (0.3 pmol in 300 nL). Upon injection larvae were kept on an artificial diet as described above, and we scored pupal development at 24 h post-injection. Per treatment, we used 20 larvae and three biological replicates were conducted. Typical phenotype effects were captured with a Leica M205A stereomicroscope with a camera (Leica Microsystems, Wetzlar, Germany)."}, "BdCrzR": {"test_system": "BdCrzR", "test": "Ca2+ mobilization luminescence (aequorin) assay in BdCrzR-expressing CHO cells", "assay_type": "cell-based, Bactrocera dorsalis", "settings": "for Ca2+ response of BdCrzR-expressing CHO cells: CHO cells with aequorin and Gα16, 10-fold serial dilution of peptide", "protocol": "The ORF for BdCrzR was inserted into the expression vector pcDNA3.1 (+). The correct clone of pcDNA3.1-BdCrzR was confirmed by sequencing (Invitrogen). Chinese Hamster Ovary (CHO) cells, supplemented with aequorin, and Gα16 subunit, were employed for the heterologous expression. The methods for the transfection and the Ca^2+ mobilization assay were performed as previously described (Jiang et al., [2014]). Briefly, cells were transfected with the pcDNA3.1(+)-BdCrzR using TransIT-LT1 transfection reagent (Mirus Bio). At 30 h after the transfection, the cells were collected and incubated with the coelenterazine (Invitrogen) for 2.5 h prior to the functional assay. The cells transfected with the empty pcDNA3.1 vector, were used as a negative control.\nThe luminescence assay was performed by measuring the intracellular Ca^2+ mobilization of the transfected CHO cells. A 10-fold serial dilution of the peptides (BdCrz and BmAKH) was applied to the cells. The luminescence caused by the intracellular calcium mobilization was measured within 20 s in every half-second intervals by a TriStar^2 LB 942 Multimode Reader (Berthold Technologies, Bad Wildbad, Germany; Jiang et al., [2013], [2014]). The lowest concentration of BdCrz ligand showing the maximum activation of the receptor, was selected for luminescence normalization. Based on that, a concentration-response curve was calculated for BdCrz by logistic fitting in Origin 8.6 (OriginLab Corporation, Northampton, MA). All experiments were conducted with three biological replicates."}, "Schistocerca americana": {"test_system": "Schistocerca americana", "settings": "ref Veenstra, [1991]; cited from earlier work", "from_the_text": "(§2) Neuropeptides play a central role in regulating numerous vital physiological systems and behavioral events in diverse insects. The multiple functions of insect neuropeptides make them a prime practical potential target in the development of novel insect control agents (Boonen et al., [2009])."}, "MsCrzR": {"test_system": "MsCrzR", "settings": "ref Kim et al., [2004], cited from earlier work", "from_the_text": "as §1"}, "Bombyx mori larvae": {"test_system": "Bombyx mori larvae", "settings": "injection into larvae; ref Tanaka et al., [2002]; cited from earlier work", "from_the_text": "Crz is highly conserved with respect to spatial expression pattern, but no clear pattern of function has emerged."}, "Periplaneta americana": {"test_system": "Periplaneta americana", "settings": "ref Veenstra, [1989]; cited from earlier work", "from_the_text": "as §2"}}, "note": "Where two headings read alike, the source gives them in different places.", "data": [{"substance": "DmCrz: Corazonin of Drosophila melanogaster (NP_524350.1) (QTFQYSRGWTN; Corazonin; UniProt Q26377 20-30, looked up)", "values": [{"measurement": "EC50", "setting": "DmCrzR; DmCrzR-transfected CHO cells", "result": 18, "unit": "nM"}, {"measurement": "EC50", "setting": "DmCrzR; Xenopus oocyte cells", "result": 1, "unit": "nM"}]}, {"substance": "pAsn-Glu-Ser-Pro-Gly-Phe-Phe-Leu-Lys-Ile-Thr-Lys-Asn-Val-Pro-Arg-Leu-NH2 [BdETH, ecdysis-triggering hormone (ETH) of B. dorsalis, synthesized by Genescript, reference compound]", "values": [{"measurement": "rescue of pupariation in head-ligated larvae", "setting": "[1]", "result": "the same result was also observed"}]}, {"substance": "pCys-Glu-Leu-Thr-Phe-Ser-Pro-Asp-Thr-NH2 [BmAKH, adipokinetic hormone (AKH) peptide of Bombyx mori, reference compound]", "values": [{"measurement": "Ca2+ response of BdCrzR-expressing CHO cells", "setting": "BdCrzR", "result": "no responses"}, {"measurement": "Ca2+ response of BdCrzR-expressing CHO cells", "setting": "BdCrzR; listed as AKH", "result": "did not respond"}]}, {"substance": "pGln-Thr-Phe-Gln-Tyr-Ser-His-Gly-Trp-Thr-Asn-NH2 [[His^7]-Crz]", "values": [{"measurement": "dark-inducing activity", "setting": "Schistocerca americana", "result": "dark-inducing peptide"}]}, {"substance": "pGln-Thr-Phe-Gln-Tyr-Ser-His-Gly-Trp-Thr-Ser-NH2 [BdCrz, mature corazonin of Bactrocera dorsalis, …amide, synthesized by Genescript]", "values": [{"measurement": "EC50", "setting": "BdCrzR; CHO cells with aequorin and Gα16, transiently expressing BdCrzR, Ca2+ luminescence within 20 s, logistic fit, three independent measurements, each three replicates", "result": 52.5, "unit": "nM"}, {"measurement": "Ca2+ response of BdCrzR-expressing CHO cells", "setting": "BdCrzR", "result": "concentration-dependent Ca^2+ responses"}, {"measurement": "head-ligated larvae that made the transition from the larval to the pupal stage", "setting": "[1]; 20 larvae per treatment, three biological replicates", "result": 97, "unit": "%"}, {"measurement": "rescue of pupariation in head-ligated larvae", "setting": "[1]", "result": "could rescue the effects"}, {"measurement": "EC50", "setting": "MsCrzR; CHO", "result": 0.2, "unit": "nM"}, {"measurement": "EC50", "setting": "MsCrzR; Xenopus oocyte-expression system", "result": 0.075, "unit": "nM"}, {"measurement": "pupal development", "setting": "Bombyx mori larvae", "result": "prolonged pupal development"}, {"measurement": "silk spinning rate", "setting": "Bombyx mori larvae", "result": "reduced the silk spinning rate"}, {"measurement": "cardioacceleratory activity", "setting": "Periplaneta americana", "result": "cardioacceleratory peptide"}]}]}
